Reference: patent US8993574B2, “Pyrrole antifungal agents” (F2G Ltd, priority 2008, dated 2015)
≈ marks a conversion by molar mass, not a printed value.

Tests used:
Type in all cases: cell-based
Aspergillus flavus [1] = test: MIC, YAG medium; conditions: 24 h at 35° C, MIC banded into grades; for MIC: Aspergillus flavus, 24 h, read-out: MIC grade, A. flavus
Procedure, shortened: (§1)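 Endpoint is growth at OD 485 nm after 24 h at 35° C, with MIC defined as the lowest drug level giving >70% inhibition relative to untreated wells and recorded in mg/L. Tests ran in YAG broth with 1−2×10^4 cfu/mL spore inocula from Sabouraud-grown cultures. Drug ranges were 50-0.05 mg/L, repeated at 0.5-0.0005 mg/L when needed.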

[2] = tested on: Aspergillus fumigatus AF210; test: MIC, YAG medium; conditions: 24 h at 35° C, MIC banded into grades; for MIC: Aspergillus fumigatus, read-out: MIC grade, A. fumigatus 210
Procedure, shortened: as §1

[3] = tested on: Aspergillus fumigatus AF293; test: MIC, YAG medium; conditions: 24 h at 35° C, MIC banded into grades; for MIC: Aspergillus fumigatus, read-out: MIC grade, A. fumigatus
Procedure, shortened: as §1

Aspergillus niger [4] = test: MIC, YAG medium; conditions: 24 h at 35° C, MIC banded into grades; for MIC: Aspergillus niger, read-out: MIC grade, A. niger
Procedure, shortened: as §1

Aspergillus terreus AT49 [5] = test: MIC, YAG medium; conditions: 24 h at 35° C, MIC banded into grades; for MIC: Aspergillus terreus, read-out: MIC grade, A. terreus 49
Procedure, shortened: as §1

Aspergillus terreus AT4 [6] = test: MIC, YAG medium; conditions: 24 h at 35° C, MIC banded into grades; for MIC: Aspergillus terreus, read-out: MIC grade, A. terreus
Procedure, shortened: as §1

Aspergillus flavus [7] = test: MIC, RPMI medium; conditions: MIC banded into grades; for MIC: Aspergillus flavus, read-out: MIC grade, A. flavus
Procedure, shortened: (§2)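 RPMI (2% glucose, 0.135 M MOPS, pH 7.0) microdilution; drug 50-0.05 mg/L doubling series; inoculum 1−2×10^4 cfu/mL; 24-48 h, 35° C; OD485; MIC = lowest conc. with >80% inhibition vs drug-free control.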

[8] = tested on: Aspergillus fumigatus AF210; test: MIC, RPMI medium; conditions: for MIC grade, A. fumigatus 210: MIC banded into grades; for MIC: Aspergillus fumigatus, AF210, MIC banded into grades, read-out: MIC grade, A. fumigatus 210
Procedure, shortened: as §2

[9] = tested on: Aspergillus fumigatus AF293; test: MIC, RPMI medium; conditions: for MIC grade, A. fumigatus: MIC banded into grades; for MIC: Aspergillus fumigatus, AF293, MIC banded into grades, read-out: MIC grade, A. fumigatus
Procedure, shortened: as §2

Aspergillus niger [10] = test: MIC, RPMI medium; conditions: MIC banded into grades; for MIC: Aspergillus niger, read-out: MIC grade, A. niger
Procedure, shortened: as §2

Aspergillus terreus AT49 [11] = test: MIC, RPMI medium; conditions: for MIC grade, A. terreus 49: MIC banded into grades; for MIC: Aspergillus terreus, AT49, MIC banded into grades, read-out: MIC grade, A. terreus 49
Procedure, shortened: as §2

Aspergillus terreus AT4 [12] = test: MIC, RPMI medium; conditions: for MIC grade, A. terreus: MIC banded into grades; for MIC: Aspergillus terreus, AT4, MIC banded into grades, read-out: MIC grade, A. terreus
Procedure, shortened: as §2

| Compound | MIC grade, A. flavus (Aspergillus flavus [1]) | MIC grade, A. fumigatus 210 [2] | MIC grade, A. fumigatus [3] | MIC grade, A. niger (Aspergillus niger [4]) | MIC grade, A. terreus 49 (Aspergillus terreus AT49 [5]) | MIC grade, A. terreus (Aspergillus terreus AT4 [6]) | MIC grade, A. flavus (Aspergillus flavus [7]) | MIC grade, A. fumigatus 210 [8] | MIC grade, A. fumigatus [9] | MIC grade, A. niger (Aspergillus niger [10]) | MIC grade, A. terreus 49 (Aspergillus terreus AT49 [11]) | MIC grade, A. terreus (Aspergillus terreus AT4 [12]) | MIC (Aspergillus flavus [1]) [µg/mL] | MIC [2] [µg/mL] | MIC [3] [µg/mL] | MIC (Aspergillus niger [4]) [µg/mL] | MIC (Aspergillus terreus AT49 [5]) [µg/mL] | MIC (Aspergillus terreus AT4 [6]) [µg/mL] | MIC (Aspergillus flavus [7]) [µg/mL] | MIC [8] [µg/mL] | further results |
| --- | --- | --- | --- | --- | --- | --- | --- | --- | --- | --- | --- | --- | --- | --- | --- | --- | --- | --- | --- | --- | --- |
| COC(=O)Cn1c(C)cc(-c2ccccc2)c1C(=O)C(=O)Nc1ccc(N2CCN(c3cc(C)cc(C)n3)CC2)cc1Cl [Example 98, (2-{2-Chloro-4-[4-(4,6-dimethyl-pyridin-2-yl)-piperazin-1-yl]-phenylaminooxalyl}-5-methyl-3-phenyl-pyrrol-1-yl)-acetic acid methyl ester] | 1 (a grade of 1 represents an MIC of greater than 10 mg/L) | 3 (A grade of 3 represents an MIC of less than 1 mg/L) | 3 (A grade of 3 represents an MIC of less than 1 mg/L) | 3 (A grade of 3 represents an MIC of less than 1 mg/L) | 3 (A grade of 3 represents an MIC of less than 1 mg/L) | 3 (A grade of 3 represents an MIC of less than 1 mg/L) | 2 (A grade of 2 represents an MIC of from 1 to 10 mg/L) | 3 (A grade of 3 represents an MIC of less than 1 mg/L) | 3 (A grade of 3 represents an MIC of less than 1 mg/L) | 3 (A grade of 3 represents an MIC of less than 1 mg/L) | 3 (A grade of 3 represents an MIC of less than 1 mg/L) | 3 (A grade of 3 represents an MIC of less than 1 mg/L) |  |  |  |  |  |  |  |  |  |
| Cc1cc(-c2ccccc2)c(C(=O)C(=O)Nc2ccc(N3CCN(Cc4ccccc4)CC3)cc2)n1C [Example 144, N-[4-(4-Benzyl-piperazin-1-yl)-phenyl]-2-(1,5-dimethyl-3-phenyl-1H-pyrrol-2-yl)-2-oxo-acetamide] |  |  |  |  |  |  |  |  |  |  |  |  | < 1 | < 1 | < 1 | < 1 | < 1 | < 1 | < 1 | < 1 | MIC [9]: < 1 µg/mL; MIC (Aspergillus niger [10]): < 1 µg/mL; MIC (Aspergillus terreus AT49 [11]): < 1 µg/mL; MIC (Aspergillus terreus AT4 [12]): < 1 µg/mL |
| COC(=O)n1c(C)cc(-c2ccccc2)c1C(=O)C(=O)Nc1ccc(N2CCN(c3cc(C)cc(C)n3)CC2)cc1 [Example 56, 2-{4-[4-(4,6-Dimethyl-pyridin-2-yl)-piperazin-1-yl]-phenylaminooxalyl}-5-methyl-3-phenyl-pyrrole-1-carboxylic acid methyl ester] | 1 (a grade of 1 represents an MIC of greater than 10 mg/L) | 2 (A grade of 2 represents an MIC of from 1 to 10 mg/L) | 2 (A grade of 2 represents an MIC of from 1 to 10 mg/L) | 2 (A grade of 2 represents an MIC of from 1 to 10 mg/L) | 2 (A grade of 2 represents an MIC of from 1 to 10 mg/L) | 2 (A grade of 2 represents an MIC of from 1 to 10 mg/L) | 1 (a grade of 1 represents an MIC of greater than 10 mg/L) | 1 (a grade of 1 represents an MIC of greater than 10 mg/L) | 1 (a grade of 1 represents an MIC of greater than 10 mg/L) | 1 (a grade of 1 represents an MIC of greater than 10 mg/L) | 1 (a grade of 1 represents an MIC of greater than 10 mg/L) | 1 (a grade of 1 represents an MIC of greater than 10 mg/L) |  |  |  |  |  |  |  |  |  |
| Cc1cc(-c2ccccc2)c(C(=O)C(=O)Nc2ccc(-c3ncc(CN4CCCCC4)o3)cc2)n1C [Example 153, 2-(1,5-Dimethyl-3-phenyl-1H-pyrrol-2-yl)-2-oxo-N-[4-(5-piperdin-1-ylmethyl-oxazol-2-yl)-phenyl]-acetamide] | 3 (A grade of 3 represents an MIC of less than 1 mg/L) | 2 (A grade of 2 represents an MIC of from 1 to 10 mg/L) | 3 (A grade of 3 represents an MIC of less than 1 mg/L) | 3 (A grade of 3 represents an MIC of less than 1 mg/L) | 3 (A grade of 3 represents an MIC of less than 1 mg/L) | 2 (A grade of 2 represents an MIC of from 1 to 10 mg/L) | 2 (A grade of 2 represents an MIC of from 1 to 10 mg/L) | 2 (A grade of 2 represents an MIC of from 1 to 10 mg/L) | 2 (A grade of 2 represents an MIC of from 1 to 10 mg/L) | 3 (A grade of 3 represents an MIC of less than 1 mg/L) | 3 (A grade of 3 represents an MIC of less than 1 mg/L) | 3 (A grade of 3 represents an MIC of less than 1 mg/L) |  |  |  |  |  |  |  |  |  |
| CCc1cc(-c2ccccc2)c(C(=O)C(=O)Nc2ccc(N3CCN(c4cc(C)cc(C)n4)CC3)cc2)n1COC [Example 125, N-{4-[4-(4,6-Dimethyl-pyridin-2-yl)-piperazin-1-yl]-phenyl}-2-(5-ethyl-1-methoxymethyl-3-phenyl-1H-pyrrol-2-yl)-2-oxo-acetamide] |  |  |  |  |  |  |  |  |  |  |  |  | < 1 | < 1 | < 1 | < 1 | < 1 | < 1 | 1 to 10 (≈ 1.81 to 18.1 µM) | 1 to 10 (≈ 1.81 to 18.1 µM) | MIC [9]: 1 to 10 µg/mL (≈ 1.81 to 18.1 µM); MIC (Aspergillus niger [10]): 1 to 10 µg/mL (≈ 1.81 to 18.1 µM); MIC (Aspergillus terreus AT49 [11]): 1 to 10 µg/mL (≈ 1.81 to 18.1 µM); MIC (Aspergillus terreus AT4 [12]): 1 to 10 µg/mL (≈ 1.81 to 18.1 µM) |
